Results from US20240092784A1, “CONDENSED HETEROCYCLIC COMPOUND” (NISSAN CHEMICAL CORPORATION, priority 2020, published 2024).
Like-named read-outs stand apart in the source and are kept apart here.

Molecular target: human SPR (Homo sapiens (Human), UniProt P35270)
Assay: Evaluation Example 2: Measurement of human SPR inhibitory activity (seven concentrations, sepiapterin absorbance at 420 nm)
Assay type: biochemical
How it was run: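 Reactions ran 240 min at room temperature in 100 mM Tris-HCl pH 7.5 with 0.01% BSA. They contained tag-cleaved, E. coli-expressed full-length human SPR (diluted to 150 ng/mL), seven compound concentrations from 0.14 to 100 nM, and sepiapterin/NADPH added as a 120 μM/160 μM solution. Inhibition was calculated from sepiapterin absorbance at 420 nm.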

[1] = Evaluation Example 2, seven concentrations 0.14 nM to 100 nM, 240 minutes at room temperature, read-out: IC50

Chain of human SPR (P35270 whole entry): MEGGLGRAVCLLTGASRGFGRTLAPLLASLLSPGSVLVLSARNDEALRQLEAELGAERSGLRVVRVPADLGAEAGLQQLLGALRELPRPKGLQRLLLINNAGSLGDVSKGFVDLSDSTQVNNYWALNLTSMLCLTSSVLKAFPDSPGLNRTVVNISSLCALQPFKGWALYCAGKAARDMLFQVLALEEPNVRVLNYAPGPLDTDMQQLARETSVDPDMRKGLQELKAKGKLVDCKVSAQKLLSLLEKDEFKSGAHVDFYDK

| SMILES | IC50 [1] [nM] | IC50 (sepiapterin absorbance, Table 41, read-out: concentration at 50% inhibition of human SPR (IC50)) [nM] |
| --- | --- | --- |
| Cc1nn2c(O)c(C(=O)NC3CC3)c(=O)n(CC(C)C)c2c1/C=C/C(=O)N1CCCC12CCCN(C(=O)OC(C)(C)C)C2 (centres unmarked) [Synthesis Example 660, Tert-butyl (E)-1-(3-(6-(cyclopropylcarbamoyl)-7-hydroxy-4-isobutyl-2-methyl-5-oxo-4,5-dihydropyrazolo[1,5-a]pyrimidin-3-yl)acryloyl)-1,7-diazaspiro[4.5]decane-7-carboxylate] | 3.97 |  |
| Cc1nn2c(O)c(C(=O)NC3CC3)c(=O)n(CC(C)C)c2c1/C=C/C(=O)N1CCCC12CCN(C(=O)OC(C)(C)C)CC2 [Synthesis Example 661, Tert-butyl (E)-1-(3-(6-(cyclopropylcarbamoyl)-7-hydroxy-4-isobutyl-2-methyl-5-oxo-4,5-dihydropyrazolo[1,5-a]pyrimidin-3-yl)acryloyl)-1,8-diazaspiro[4.5]decane-8-carboxylate] | 2.48 |  |
| Cc1nn2c(O)c(C(=O)NC3CC3)c(=O)n(CC(C)C)c2c1/C=C/C(=O)N1CCCC12CCCN(C)C2 (centres unmarked) [Synthesis Example 662, (E)-N-Cyclopropyl-7-hydroxy-4-isobutyl-2-methyl-3-(3-(7-methyl-1,7-diazaspiro[4.5]decan-1-yl)-3-oxoprop-1-en-1-yl)-5-oxo-4,5-dihydropyrazolo[1,5-a]pyrimidine-6-carboxamide] | 1.08 |  |
| CC(=O)N1CCCC2(CCCN2C(=O)/C=C/c2c(C)nn3c(O)c(C(=O)NC4CC4)c(=O)n(CC(C)C)c23)C1 (centres unmarked) [Synthesis Example 663, (E)-3-(3-(7-Acetyl-1,7-diazaspiro[4.5]decan-1-yl)-3-oxoprop-1-en-1-yl)-N-cyclopropyl-7-hydroxy-4-isobutyl-2-methyl-5-oxo-4,5-dihydropyrazolo[1,5-a]pyrimidine-6-carboxamide] | 1.41 |  |
| Cc1nn2c(O)c(C(=O)NC3CC3)c(=O)n(CC(C)C)c2c1/C=C/C(=O)N1CCCC12CCN(C)CC2 [Synthesis Example 664, (E)-N-Cyclopropyl-7-hydroxy-4-isobutyl-2-methyl-3-(3-(8-methyl-1,8-diazaspiro[4.5]decan-1-yl)-3-oxoprop-1-en-1-yl)-5-oxo-4,5-dihydropyrazolo[1,5-a]pyrimidine-6-carboxamide] | 0.77 |  |
| CC(=O)N1CCC2(CCCN2C(=O)/C=C/c2c(C)nn3c(O)c(C(=O)NC4CC4)c(=O)n(CC(C)C)c23)CC1 [Synthesis Example 665, (E)-3-(3-(8-Acetyl-1,8-diazaspiro[4.5]decan-1-yl)-3-oxoprop-1-en-1-yl)-N-cyclopropyl-7-hydroxy-4-isobutyl-2-methyl-5-oxo-4,5-dihydropyrazolo[1,5-a]pyrimidine-6-carboxamide] | 0.92 |  |
| Cc1nn2c(O)c(C(=O)NC3CC3)c(=O)n(CC(C)C)c2c1/C=C/C(=O)N1CCCC12CCN(CC(F)(F)F)CC2 [Synthesis Example 666, (E)-N-Cyclopropyl-7-hydroxy-4-isobutyl-2-methyl-5-oxo-3-(3-oxo-3-(8-(2,2,2-trifluoroethyl)-1,8-diazaspiro[4.5]decan-1-yl)prop-1-en-1-yl)-4,5-dihydropyrazolo[1,5-a]pyrimidine-6-carboxamide] | 2.14 |  |
| CCN1CCC2(CCCN2C(=O)/C=C/c2c(C)nn3c(O)c(C(=O)NC4CC4)c(=O)n(CC(C)C)c23)CC1 [Synthesis Example 667, (E)-N-Cyclopropyl-3-(3-(8-ethyl-1,8-diazaspiro[4.5]decan-1-yl)-3-oxoprop-1-en-1-yl)-7-hydroxy-4-isobutyl-2-methyl-5-oxo-4,5-dihydropyrazolo[1,5-a]pyrimidine-6-carboxamide] | 0.94 |  |
| Cc1nn2c(O)c(C(=O)NC3CC3)c(=O)n(CC(C)C)c2c1/C=C/C(=O)N1CCc2cc(F)ccc21 [Synthesis Example 668, (E)-N-Cyclopropyl-3-(3-(5-fluoroindolin-1-yl)-3-oxoprop-1-en-1-yl)-7-hydroxy-4-isobutyl-2-methyl-5-oxo-4,5-dihydropyrazolo[1,5-a]pyrimidine-6-carboxamide] | 7.87 |  |
| Cc1nn2c(O)c(C(=O)NC3CC3)c(=O)n(CC(C)C)c2c1/C=C/C(=O)N1CCc2cc(C#N)ccc21 [Synthesis Example 669, (E)-3-(3-(5-Cyanoindolin-1-yl)-3-oxoprop-1-en-1-yl)-N-cyclopropyl-7-hydroxy-4-isobutyl-2-methyl-5-oxo-4,5-dihydropyrazolo[1,5-a]pyrimidine-6-carboxamide] | 1.84 |  |
| Cc1nn2c(O)c(C(=O)NC3CC3)c(=O)n(CC(C)C)c2c1/C=C/C(=O)N1CCc2cc(Br)ccc21 [Synthesis Example 670, (E)-3-(3-(5-Bromoindolin-1-yl)-3-oxoprop-1-en-1-yl)-N-cyclopropyl-7-hydroxy-4-isobutyl-2-methyl-5-oxo-4,5-dihydropyrazolo[1,5-a]pyrimidine-6-carboxamide] | 11.5 |  |
| Cc1nn2c(O)c(C(=O)NC3CC3)c(=O)n(CC(C)C)c2c1/C=C/C(=O)N1CCN(C2CC(F)(F)C2)C[C@@H]1C [Synthesis Example 671, (S,E)-N-Cyclopropyl-3-(3-(4-(3,3-difluorocyclobutyl)-2-methylpiperazin-1-yl)-3-oxoprop-1-en-1-yl)-7-hydroxy-4-isobutyl-2-methyl-5-oxo-4,5-dihydropyrazolo[1,5-a]pyrimidine-6-carboxamide] | 1.49 |  |
| Cc1nn2c(O)c(C(=O)NC3CC3)c(=O)n(CC(C)C)c2c1/C=C/C(=O)N1CCC(F)(F)CC1C (centres unmarked) [Synthesis Example 672, (E)-N-Cyclopropyl-3-(3-(4,4-difluoro-2-methylpiperidin-1-yl)-3-oxoprop-1-en-1-yl)-7-hydroxy-4-isobutyl-2-methyl-5-oxo-4,5-dihydropyrazolo[1,5-a]pyrimidine-6-carboxamide] | 0.86 |  |
| Cc1nn2c(O)c(C(=O)NC3CC3)c(=O)n(CC(C)C)c2c1/C=C/C(=O)N1CCC[C@@H]1c1ccccc1 [Synthesis Example 673, (R,E)-N-Cyclopropyl-7-hydroxy-4-isobutyl-2-methyl-5-oxo-3-(3-oxo-3-(2-phenylpyrrolidin-1-yl)prop-1-en-1-yl)-4,5-dihydropyrazolo[1,5-a]pyrimidine-6-carboxamide] | 1.35 |  |
| Cc1nn2c(O)c(C(=O)NC3CC3)c(=O)n(CC(C)C)c2c1/C=C/C(=O)N1CCC[C@H]1c1ccccc1 [Synthesis Example 674, (S,E)-N-Cyclopropyl-7-hydroxy-4-isobutyl-2-methyl-5-oxo-3-(3-oxo-3-(2-phenylpyrrolidin-1-yl)prop-1-en-1-yl)-4,5-dihydropyrazolo[1,5-a]pyrimidine-6-carboxamide] | 1.36 |  |
| Cc1nn2c(O)c(C(=O)NC3CC3)c(=O)n(CC(C)C)c2c1/C=C/C(=O)N1CCOc2cnccc21 [Synthesis Example 675, (E)-N-Cyclopropyl-3-(3-(2,3-dihydro-1H-pyrido[3,4-b][1,4]oxazin-1-yl)-3-oxoprop-1-en-1-yl)-7-hydroxy-4-isobutyl-2-methyl-5-oxo-4,5-dihydropyrazolo[1,5-a]pyrimidine-6-carboxamide] | 0.99 |  |
| Cc1nn2c(O)c(C(=O)NC3CC3)c(=O)n(CC(C)C)c2c1/C=C/C(=O)N1CCOc2ncccc21 [Synthesis Example 676, (E)-N-Cyclopropyl-3-(3-(2,3-dihydro-1H-pyrido[2,3-b][1,4]oxazin-1-yl)-3-oxoprop-1-en-1-yl)-7-hydroxy-4-isobutyl-2-methyl-5-oxo-4,5-dihydropyrazolo[1,5-a]pyrimidine-6-carboxamide] | 0.91 |  |
| Cc1nn2c(O)c(C(=O)NC3CC3)c(=O)n(CC(C)C)c2c1/C=C/C(=O)N1CCC[C@H]1C(C)(C)O [Synthesis Example 677, (S,E)-N-Cyclopropyl-7-hydroxy-3-(3-(2-(2-hydroxypropan-2-yl)pyrrolidin-1-yl)-3-oxoprop-1-en-1-yl)-4-isobutyl-2-methyl-5-oxo-4,5-dihydropyrazolo[1,5-a]pyrimidine-6-carboxamide] | 0.95 |  |
| Cc1nn2c(O)c(C(=O)NC3CC3)c(=O)n(CC(C)C)c2c1/C=C/C(=O)N1CCCC12CCN(C(C)C)CC2 [Synthesis Example 678, (E)-N-Cyclopropyl-7-hydroxy-4-isobutyl-3-(3-(8-isopropyl-1,8-diazaspiro[4.5]decan-1-yl)-3-oxoprop-1-en-1-yl)-2-methyl-5-oxo-4,5-dihydropyrazolo[1,5-a]pyrimidine-6-carboxamide] | 1.17 |  |
| Cc1nn2c(O)c(C(=O)NC3CC3)c(=O)n(CC(C)C)c2c1/C=C/C(=O)N1CCO[C@H](C)C1 [Synthesis Example 679, (R,E)-N-Cyclopropyl-7-hydroxy-4-isobutyl-2-methyl-3-(3-(2-methylmorpholino)-3-oxoprop-1-en-1-yl)-5-oxo-4,5-dihydropyrazolo[1,5-a]pyrimidine-6-carboxamide] | 0.94 |  |
| Cc1nn2c(O)c(C(=O)NC3CC3)c(=O)n(CC(C)C)c2c1/C=C/C(=O)N1CCO[C@@H](C)C1 [Synthesis Example 680, (S,E)-N-Cyclopropyl-7-hydroxy-4-isobutyl-2-methyl-3-(3-(2-methylmorpholino)-3-oxoprop-1-en-1-yl)-5-oxo-4,5-dihydropyrazolo[1,5-a]pyrimidine-6-carboxamide] | 0.81 |  |
| Cc1nn2c(O)c(C(=O)NC3CC3)c(=O)n(CC(C)C)c2c1/C=C/C(=O)N(C)CC#N [Synthesis Example 681, (E)-3-(3-((Cyanomethyl)(methyl)amino)-3-oxoprop-1-en-1-yl)-N-cyclopropyl-7-hydroxy-4-isobutyl-2-methyl-5-oxo-4,5-dihydropyrazolo[1,5-a]pyrimidine-6-carboxamide] | 0.64 |  |
| COC[C@@H]1COCCN1C(=O)/C=C/c1c(C)nn2c(O)c(C(=O)NC3CC3)c(=O)n(CC(C)C)c12 [Synthesis Example 682, (R,E)-N-Cyclopropyl-7-hydroxy-4-isobutyl-3-(3-(3-(methoxymethyl)morpholino)-3-oxoprop-1-en-1-yl)-2-methyl-5-oxo-4,5-dihydropyrazolo[1,5-a]pyrimidine-6-carboxamide] |  | 0.85 |
